{"source": "patent US8497123B2", "about": "“Sterol glucoside toxins” (priority 2000, dated 2013)", "key": {"[1]": {"tested_on": "adult rat neocortex cortical wedges", "format": "cell-based", "details": "for field potential response with AMPA antagonist NBQX: co-application of NBQX or other AMPA antagonists; for field potential response: cortical wedge, Mg2+-free buffer; for field potential response with NMDA receptor antagonists (AP5, kynurenate, MK801): co-application of NMDA antagonist", "description": "Cortical ‘wedges’ were prepared as described previously (Shaw et al., 1996). In brief, animals were anesthetized with CO2, decapitated, and a cortical block rapidly removed and placed in cold Krebs-Henseleit buffer containing (in mM): NaCl 124, KCl 3.3, NaHCO3 25, glucose 10, KH2PO4 1.2, CaCl2 2.4, and MgSO4 1.2, bubbled with 5% CO2/95% O2, pH 7.4. The cortical block was sectioned into […] thick coronal slices using a Vibratome (Campden Instruments) and the slices cut into pie shaped wedges in which the white matter formed the narrow edge of the wedge. Each wedge was placed on a net across a grease gap between two fluid filled chambers. The cortical side of the wedge was bathed (at room temperature, approx. 25° C.) in buffer lacking Mg^2+; the callosal portion was bathed in buffer containing Mg^2+ to minimize neural activity. Field potentials were differentially recorded between the two chambers using two Ag/AgCl electrodes. Recordings from up to 6 wedges, each in individual chambers, could be made simultaneously for each experiment. The wedges were continuously perfused on the cortical side with oxygenated, Mg^2+-free buffer using a gravity feed system. Using this system, drugs could be rapidly substituted for control media to examine response characteristics. Wedges typically survived for up to 8 hrs. Responses were recorded on LabView™ after amplification and A/D conversion and the traces were charted in Excel™ for Windows™. Statistical analysis of peak response amplitude was performed by one-way ANOVA using Bonferroni's post test with GraphPad Prism™."}, "[2]": {"tested_on": "rat cortical slices", "details": "for LDH release (cell death) / LDH release in presence of AP5 / NMDA antagonists: rat cortical slices; for LDH release (cell death): 1 hr at 37° C.; for LDH release in presence of AP5 / NMDA antagonists: plus AP5", "description": "Cortical slices were prepared as described above in the glutamate release experiments and placed in tissue culture wells containing Krebs-Heinsleight buffer supplemented with 0.0004% H2O2 and 1 mg/mL glucose. […] For additional comparison and to establish the limits of the method, some slices were freeze-thawed to kill all the cells. Alternatively, some slices were incubated in buffer containing 1.2 mM Mg^2+ in order to diminish spontaneous neural activity. At the end of the 1 hr incubation period, 3 samples (100 μl of buffer, each sample) were taken from each well. LDH assays were performed on these samples using a LDH diagnostic kit (Sigma) following the manufacturer's protocol with some modifications. In brief, 0.5 ml of pyruvate solution was mixed with 0.5 mg pre-weighed NADH. 100 μl of slice medium (free of slices) was added to the mixture and incubated for 30 min at 37° C. 0.5 ml of Sigma coloring reagent (2, 4-dinitrophenylhydrazine in HCl, 2 mg/ml) was added to develop the color and the mixture was incubated for 20 min at room temperature. 5 ml of 0.4 N NaOH were added to each tube. After 5 min, optical density was read at 440 nm. Standard curves were prepared for each assay using different concentrations of pyruvate solution (0-960 units). LDH activity (in International Units) was calculated from the standard curve and normalized by total protein content of each slice as determined by the Lowry protein assay (Peterson, 1979). One International Unit represents the amount of enzyme required to convert 1 μmol of substrate/minute at room temperature.\n(§1) Data for LDH and glutamate release experiments were analyzed for significance by one way ANOVA using Dunnett's and Bonferroni's post tests with GraphPad Prism™."}, "[3]": {"tested_on": "human cortical astrocytes", "format": "cell-based", "details": "for apoptotic cell loss (cell density, caspase-3): cortical astrocytes on coverslips", "description": "FIG. 5: Caspase-3 labeling of human cortical astrocytes in tissue culture. Fetal human telencephalic astrocytes were grown to confluency and then exposed to NMDA, BSSG, cholesterol glucoside (CG), or hydrogen peroxide (H2O2) for various periods. […] At longer time points, the overall numbers of cells in these conditions declined.\nWe have raised cortical astrocytes on coverslips in culture, exposing them to […], or cholesterol glucoside. Cell loss was measured directly by cell density measurements; apoptosis was measured by staining cells for caspase-3 labeling."}, "[4]": {"tested_on": "rat cortical slices", "format": "cell-based", "description": "Brain slices were taken from cortical blocks in which all subcortical tissue had been removed. […] slices were cut using a modified slice cutter (Van Huizen et al., 1989). Slices were rinsed twice for 5 min in Mg^+2 containing Krebs-Henseleit buffer pH 7.4. Incubation media consisted of 100 μM cold glutamate, 20 μM AP5 and 10 μM DNQX, the latter NMDA or AMPA antagonists, respectively. 10 nM of [^3H]-glutamate was added to the mixture and incubated for 1 hr at 37° C. under in oxygenated atmosphere (O2/CO2=95/5%). Experimental treatments were performed in […] Mg^+2 free buffer placed in tissue culture wells containing different concentrations of MSO or isolated BSSG fractions of cycad flour. Slices were removed at the end of incubation period and the supernatant removed for scintillation counting. The supernatant fractions were placed in scintillation vials containing NEN Formula 989 for a minimum of 12 hrs before being counted in a Beckman LS6000 scintillation counter. Results were normalized to the dpm counts of respective controls.\nas §1"}, "[5]": {"tested_on": "Rats", "details": "rats fed MSO", "experimental": "Terminal deoxynucleotidyl transferase (TdT) mediated dUTP-digoxigenin (DIG) nickend labeling (TUNEL) was carried out using an Intergen ApopTag Plus peroxidase kit using the manufacturer's protocol adapted from Gavrieli et al. (1992) with some modifications. […] Briefly, 20 μM thick coronal sections were cut on a cryostat then fixed in 1% paraformaldehyde at room temperature for 2 days. […] After rinsing with PBS, the sections were then exposed to 11 μL/cm^2 working strength of TdT enzyme for 1 hr at 37° C. After washing in PBS, 15 μL/cm^2 of anti-digoxigenin-peroxidase was applied for 30 min in a humidified chamber at room temperature. Colour was developed by adding 125 μl DAB substrate working solution for 6 min. Slides were counter-stained with methyl green for 25 minutes at room temperature. Positive apoptosis controls were generated by pre-incubating sections with DNAase (Sigma)."}, "[6]": {"details": "fetal human telencephalic astrocytes, vs. control (DMEM)"}}, "note": "Entries after “also recorded” stand apart in the source; their conditions may differ. Where two headings read alike, the source gives them in different places.", "data": [{"smiles": "Cc1onc(O)c1CC(N)C(=O)O", "note": "(stereo not drawn) [AMPA, α-amino-3-hydroxy-5-methyl-4-isoxazolepropionic acid]", "values": [{"measurement": "field potential response with AMPA antagonist NBQX", "setting": "[1]", "result": "blocked"}]}, {"smiles": "CC[C@H](CC[C@@H](C)[C@H]1CC[C@H]2[C@@H]3CC=C4C[C@@H](O)CC[C@]4(C)[C@H]3CC[C@]12C)C(C)C", "note": "[β-sitosterol agylcone, beta-sitosterol (stigmasta-5-en-3beta-ol)]", "values": [{"measurement": "field potential response", "setting": "[1]; bath application", "result": "without effect"}, {"measurement": "LDH release (cell death)", "setting": "[2]", "result": "without effect"}]}, {"smiles": "C[C@@H]1O[C@@H](O[C@H]2C[C@@H](O)[C@]3(CO)[C@H]4[C@H](O)C[C@]5(C)[C@@H](C6=CC(=O)OC6)CC[C@]5(O)[C@@H]4CC[C@]3(O)C2)[C@H](O)[C@H](O)[C@H]1O", "note": "[Ouabain, ouabain]", "values": [{"measurement": "field potential response", "setting": "[1]; bath application", "result": "small hyperpolarizing responses"}, {"measurement": "LDH release (cell death)", "setting": "[2]", "result": "little LDH release"}]}, {"smiles": "CN[C@H](CC(=O)O)C(=O)O", "note": "[NMDA, N-methyl-D-aspartate]", "values": [{"measurement": "field potential response with NMDA receptor antagonists (AP5, kynurenate, MK801)", "setting": "[1]", "result": "blocked"}, {"measurement": "LDH release (cell death)", "setting": "[2]", "result": "increased cell death"}, {"measurement": "LDH release in presence of AP5 / NMDA antagonists", "setting": "[2]", "result": "attenuated; also recorded: blocked"}, {"measurement": "caspase-3 positive labeling", "setting": "[3]; [6]", "result": "significant caspase-3 positive labeling"}]}, {"smiles": "CO[C@H]1[C@@H](O)[C@@H](C)O[C@@H](O[C@H]2CC[C@]3(C)[C@H]4CC[C@]5(C)[C@@H](C6=CC(=O)OC6)CC[C@]5(O)[C@@H]4CC[C@]3(O)C2)[C@@H]1O", "note": "[emicymarin]", "values": [{"measurement": "field potential response", "setting": "[1]; bath application", "result": "small hyperpolarizing responses"}, {"measurement": "LDH release (cell death)", "setting": "[2]", "result": "little LDH release"}]}, {"smiles": "CC[C@H](CC[C@@H](C)[C@H]1CC[C@H]2[C@@H]3CC=C4C[C@@H](O[C@@H]5O[C@H](CO)[C@@H](O)[C@H](O)[C@H]5O)CC[C@]4(C)[C@H]3CC[C@]12C)C(C)C", "note": "[BSSG, beta-sitostrol-beta-D-glucoside (5-cholesten-24b-ethyl-3b-ol-D-glucoside)]", "values": [{"measurement": "field potential response", "setting": "[1]; bath application", "result": "qualitative similarity"}, {"measurement": "LDH release (cell death)", "setting": "[2]", "result": "qualitative similarity"}, {"measurement": "apoptotic cell loss (cell density, caspase-3)", "setting": "[3]", "result": "time-dependent apoptotic cell loss"}, {"measurement": "caspase-3 positive labeling", "setting": "[3]; [6]", "result": "significant caspase-3 positive labeling"}]}, {"smiles": "OO", "note": "[H2O2, hydrogen peroxide]", "values": [{"measurement": "effect on LDH release", "setting": "[2]", "result": "did not affect"}, {"measurement": "caspase-3 positive labeling", "setting": "[3]; human", "result": "significant caspase-3 positive labeling"}]}, {"smiles": "C=C(C)[C@H]1CN[C@H](C(=O)O)[C@H]1CC(=O)O", "note": "[kainic acid]", "values": [{"measurement": "apoptotic cell loss (cell density, caspase-3)", "setting": "[3]", "result": "time-dependent apoptotic cell loss"}]}, {"smiles": "CC(C)CCC[C@@H](C)[C@H]1CC[C@H]2[C@@H]3CC=C4C[C@@H](O)CC[C@]4(C)[C@H]3CC[C@]12C", "note": "[cholesterol]", "values": [{"measurement": "field potential response", "setting": "[1]; bath application", "result": "without effect"}, {"measurement": "LDH release (cell death)", "setting": "[2]", "result": "without effect"}]}, {"smiles": "CC(C)CCC[C@@H](C)[C@H]1CC[C@H]2[C@@H]3CC=C4C[C@@H](O[C@@H]5O[C@H](CO)[C@@H](O)[C@H](O)[C@H]5O)CC[C@]4(C)[C@H]3CC[C@]12C", "note": "[cholesterol glucoside, 5-cholesten-3b-ol-3b-D-glucoside]", "values": [{"measurement": "field potential response", "setting": "[1]; bath application", "result": "qualitatively similar to β-sitosterol-β-D-glucoside"}, {"measurement": "LDH release (cell death)", "setting": "[2]", "result": "qualitatively similar to β-sitosterol-β-D-glucoside"}, {"measurement": "apoptotic cell loss (cell density, caspase-3)", "setting": "[3]", "result": "time-dependent apoptotic cell loss"}, {"measurement": "caspase-3 positive labeling", "setting": "[3]; [6]", "result": "significant caspase-3 positive labeling"}]}, {"smiles": "CS(=N)(=O)CC[C@H](N)C(=O)O", "note": "(stereo partly shown) [MSO, methionine sulfoximine]", "values": [{"measurement": "calcium dependence of [3H]-glutamate release", "setting": "[4]; calcium 0 (L) or 2 mM (H)", "result": "calcium dependent"}, {"measurement": "preloaded [3H]-glutamate release", "setting": "[4]; rat cortical slices", "result": "significantly increased"}, {"measurement": "[3H]-glutamate release in presence of AP5", "setting": "[4]; rat cortical slices, plus AP5", "result": "blocked"}, {"measurement": "concentration at which depolarizing field potentials begin", "setting": "[1]; bath application, cortical wedge from adult rat", "result": "approx. 50 μM"}, {"measurement": "field potential response", "setting": "[1]; bath application", "result": "depolarizing field potentials"}, {"measurement": "field potential response with AMPA antagonist NBQX", "setting": "[1]", "result": "not blocked"}, {"measurement": "field potential response with NMDA receptor antagonists (AP5, kynurenate, MK801)", "setting": "[1]", "result": "blocked"}, {"measurement": "LDH release (cell death)", "setting": "[2]", "result": "increased cell death"}, {"measurement": "LDH release in presence of AP5 / NMDA antagonists", "setting": "[2]", "result": "blocked"}, {"measurement": "apoptosis in CNS", "setting": "[5]", "result": "evidence of apoptosis"}]}]}
